Source: US11560400B2, “Salts of diphosphate phosphoramidate of nucleosides as anticancer compounds” (NuCana plc, priority 2017, dated 2023)
Where two headings read alike, the source gives them in different places.

Key:
[1] = system: HepG2; assay: CellTiterGlo cell viability assay, HepG2; format: cell-based; details: Homo sapiens, HepG2, 72 h; for EC50: read-out: Ab EC50
Procedure, shortened: (§1)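 Cells were treated in duplicate for 72 h under standard growth conditions with a 9-point, 3.16-fold compound series at final concentrations of 198 μM to 19.8 nM in 0.5% DMSO. Viability was measured by CellTiterGlo luminescence, and absolute EC50 and percent inhibition at the top concentration were derived.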

[2] = system: OVCAR 3; assay: CellTiterGlo cell viability assay, OVCAR 3; format: cell-based; details: for EC50: OVCAR 3, 72 h, read-out: Ab EC50
Procedure, shortened: as §1

[3] = system: MCF-7; assay: CellTiterGlo cell viability assay, MCF-7; format: cell-based; details: Homo sapiens, MCF7, 72 h, MCF-7, 72 h; for EC50: read-out: Ab EC50
Procedure, shortened: as §1

[4] = in vitro; details: human, pooled cryopreserved hepatocytes, pH 7.3
[5] = percentage inhibition at the highest concentration tested, read-out: Top Inhibit

Nc1nc(Cl)nc2c1ncn2[C@@H]1O[C@H](CO)[C@@H](O)[C@@H]1F [Clofarabine, reference compound]
EC50 ([1]; Table 3 classes): 2 to 5 µM | EC50 ([1]; Table 4 classes): 1 to 5 µM | inhibition at 198 µM [1, 5]: 64% | inhibition at 198 µM ([2]; Homo sapiens, OVCAR-3, 72 h, percentage inhibition at the highest concentration tested, read-out: Top Inhibit): 48% | EC50 ([2]; Homo sapiens, Table 3 classes): > 10 µM | EC50 ([2]; Table 4 classes): > 10 µM | EC50 ([3]; Table 3 classes): 0.2 to 2 µM | EC50 ([3]; Table 4 classes): 0.2 to 1 µM | inhibition at 198 µM [3, 5]: 55% | half-life at 1 μM [4]: > 2 h
